{"source": "patent US20260042827A1", "about": "“ANTI-WT1 ANTIGEN-BINDING PROTEINS AND USES THEREOF” (UNIVERSITY HEALTH NETWORK, priority 2022, published 2026)", "key": {"DP4": {"target": "T1, DP4 (Homo sapiens, UniProt P04440+P20036)", "T1 construct": "expressed in transfected cells; host or cells: T2 cells, retrovirally transduced (pMX vector)", "T1 sequence (P20036 29-260)": "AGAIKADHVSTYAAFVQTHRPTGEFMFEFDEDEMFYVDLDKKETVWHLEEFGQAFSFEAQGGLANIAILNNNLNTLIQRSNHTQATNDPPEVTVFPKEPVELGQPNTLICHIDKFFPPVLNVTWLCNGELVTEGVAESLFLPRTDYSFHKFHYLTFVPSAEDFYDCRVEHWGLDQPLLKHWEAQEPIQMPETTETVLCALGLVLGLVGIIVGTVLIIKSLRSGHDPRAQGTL", "T1 sequence (P04440 30-258)": "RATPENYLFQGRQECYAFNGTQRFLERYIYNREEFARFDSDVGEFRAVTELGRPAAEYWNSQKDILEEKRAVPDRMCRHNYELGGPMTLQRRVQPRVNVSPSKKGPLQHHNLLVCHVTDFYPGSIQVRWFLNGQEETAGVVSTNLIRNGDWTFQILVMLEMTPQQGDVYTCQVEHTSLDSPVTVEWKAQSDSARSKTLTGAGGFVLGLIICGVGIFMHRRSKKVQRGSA", "assay": "T2 cell-based competitive binding assay", "settings": "T2 cells transduced with DP4; reference peptide Oxy271-287"}, "DP2": {"target": "T2, DP2 (Homo sapiens, UniProt P04440+P20036, A65V/A84D/A85E/K98E)", "T2 sequence (P20036 29-260)": "T1 sequence (P20036 29-260)", "T2 sequence (P04440 30-258 A65V/A84D/A85E/K98E)": "T1 sequence (P04440 30-258) with A36V, A55D, A56E, K69E", "assay": "T2 cell-based competitive binding assay", "settings": "T2 cells transduced with DP2; reference peptide Oxy271-287"}}, "note": "Numbering of substitutions follows the chain as printed.", "data": [{"sequence": "PGCNKRYFKLSHLQMHSRKHT [WT1328-348]", "values": [{"measurement": "IC50 value, displacement of reference peptide", "setting": "DP4", "result": "comparable to TT947-967"}, {"measurement": "IC50 value, displacement of reference peptide", "setting": "DP2", "result": "comparable to TT947-967"}]}, {"sequence": "CMTWNQMNL [WT1235-243, known HLA-A2 restricted peptide, negative control, reference compound]", "values": [{"measurement": "IC50 value, displacement of reference peptide", "setting": "DP4", "result": "failed to displace reference peptide at any tested concentration"}, {"measurement": "IC50 value, displacement of reference peptide", "setting": "DP2", "result": "failed to displace reference peptide at any tested concentration"}]}]}
